# Assay results taken from EP0531958A1, “6-Aminoquinolones, their synthesis and their use as antibacterial agents” (MEDIOLANUM FARMACEUTICI S.P.A., priority 1991, dated 1993).
# Where two headings read alike, the source gives them in different places.
# Columns and labels:
# Format in all cases: cell-based
# Gram + = test: MIC test, average over the 5 gram-positive test germs; details: 24 h
# Method: (§1) As to the antibacterial activity, there was determined the Least (Minimum) Inhibiting Concentration (MIC), by working according to the following operative conditions.
# (§2) There were used suspensions of test germs (5 gram-positive and 15 gram-negative) having a known titre, kept freezed at -80°C and diluted, at the time of use, in peptonized water up to a concentration of 1-2.10⁷ cfu/ml.
# (§3) A few mg of the products, according to the invention were weighed sufficient for preparing parent solutions in DMSO + NaOH (1N) containing 2560 µg/ml (64µg/ml/dish). From the thus prepared parent solutions there were prepared 12 serial dilutions (1:2) down to the concentration of 1.25 µg/ml.
# (§4) 0.5 ml of the different dilutions of each product were distributed on dishes containing 19.5 ml of agarized medium (TSA), maintained in a fluid state at the temperature of 50°C. After slight stirring, the dishes were made to solidify and dry under hood (laminar flow).
# (§5) The MIC tests (Least or "Minimum" Inhibiting Concentration) were performed by using a Steers multiwell inoculator having 36 wells, each containing 200 µl of bacterial suspension.
# (§6) After inoculation, the dishes were placed into a thermostat and checked after 24 h of incubation at 35°C.
# (§7) The MIC is defined as the lowermost product concentration (µg/ml) inhibiting the visible growth of the microorganisms.
# [1] = test system: Acinebacter calcoloaceticus OSMPV 1130; test: MIC test, agar dilution with Steers multiwell inoculator; details: TSA dishes, 24 h at 35°C, read-out: Minimum Inhibiting Concentration
# Method: as §1, §2, §3, §4, §5, §6, §7
# [2] = test system: Enterobacter cloacae OMNF 1153; test: as above; details: OMNF1153, TSA dishes, 24 h at 35°C, read-out: Minimum Inhibiting Concentration
# Method: as §1, §2, §3, §4, §5, §6, §7
# [3] = test system: Enterobacter cloacae OMNF 1174; test: as above; details: OMNF1174, TSA dishes, 24 h at 35°C, read-out: Minimum Inhibiting Concentration
# Method: as §1, §2, §3, §4, §5, §6, §7
# Escherichia coli 120 = test: as above; details: TSA dishes, 24 h at 35°C, read-out: Minimum Inhibiting Concentration
# Method: as §1, §2, §3, §4, §5, §6, §7
# [4] = test system: Escherichia coli ATCC 8739; test: as above; details: ATCC8739, TSA dishes, 24 h at 35°C, read-out: Minimum Inhibiting Concentration
# Method: as §1, §2, §3, §4, §5, §6, §7
# Escherichia coli CNUR 1 = test: as above; details: CNUR1, TSA dishes, 24 h at 35°C, read-out: Minimum Inhibiting Concentration
# Method: as §1, §2, §3, §4, §5, §6, §7
# Escherichia coli CNUR 8 = test: as above; details: CNUR8, TSA dishes, 24 h at 35°C, read-out: Minimum Inhibiting Concentration
# Method: as §1, §2, §3, §4, §5, §6, §7
# Escherichia coli ISF 432 = test: as above; details: ISF432, TSA dishes, 24 h at 35°C, read-out: Minimum Inhibiting Concentration
# Method: as §1, §2, §3, §4, §5, §6, §7
# [5] = test system: Klebsiella pneumoniae ATCC 10031; test: as above; details: ATCC10031, TSA dishes, 24 h at 35°C, read-out: Minimum Inhibiting Concentration
# Method: as §1, §2, §3, §4, §5, §6, §7
# Proteus vulgaris CNUR 6 = test: as above; details: CNUR6, TSA dishes, 24 h at 35°C, read-out: Minimum Inhibiting Concentration
# Method: as §1, §2, §3, §4, §5, §6, §7
# [6] = test system: Providencia stuardii CNUR 5; test: as above; details: CNUR5, TSA dishes, 24 h at 35°C, read-out: Minimum Inhibiting Concentration
# Method: as §1, §2, §3, §4, §5, §6, §7
# [7] = test system: Pseudomonas aeruginosa ATCC 9027; test: as above; details: ATCC9027, TSA dishes, 24 h at 35°C, read-out: Minimum Inhibiting Concentration
# Method: as §1, §2, §3, §4, §5, §6, §7
# [8] = test system: Pseudomonas aeruginosa CNUR 2; test: as above; details: CNUR2, TSA dishes, 24 h at 35°C, read-out: Minimum Inhibiting Concentration
# Method: as §1, §2, §3, §4, §5, §6, §7
# [9] = test system: Pseudomonas aeruginosa CNUR 4; test: as above; details: CNUR4, TSA dishes, 24 h at 35°C, read-out: Minimum Inhibiting Concentration
# Method: as §1, §2, §3, §4, §5, §6, §7
# Shighella enteritidis = test: as above; details: TSA dishes, 24 h at 35°C, read-out: Minimum Inhibiting Concentration
# Method: as §1, §2, §3, §4, §5, §6, §7
# [10] = test system: Staphylococcus aureus ATCC 6538; test: as above; details: ATCC6538, TSA dishes, 24 h at 35°C, read-out: Minimum Inhibiting Concentration
# Method: as §1, §2, §3, §4, §5, §6, §7
# [11] = test system: Staphylococcus aureus MPR 5; test: as above; details: MPR5, TSA dishes, 24 h at 35°C, read-out: Minimum Inhibiting Concentration
# Method: as §1, §2, §3, §4, §5, §6, §7
# [12] = test system: Staphylococcus epidermidis CPHL A2; test: as above; details: CPHLA2, TSA dishes, 24 h at 35°C, read-out: Minimum Inhibiting Concentration
# Method: as §1, §2, §3, §4, §5, §6, §7
# [13] = test system: Staphylococcus epidermidis HCF Berset C.; test: as above; details: TSA dishes, 24 h at 35°C, read-out: Minimum Inhibiting Concentration
# Method: as §1, §2, §3, §4, §5, §6, §7
# [14] = test system: Streptococcus facealis LEP Br.; test: as above; details: TSA dishes, 24 h at 35°C, read-out: Minimum Inhibiting Concentration
# Method: as §1, §2, §3, §4, §5, §6, §7
# Gram - = test: MIC test, average over the 15 gram-negative test germs; details: 24 h
# Method: as §1, §2, §3, §4, §5, §6, §7
# [15] = geometrical average of the MIC over the 15 Gram - strains, read-out: Geometrical Average
# [16] = mean log of the MIC over the 15 Gram - strains, read-out: Log (converted)
# [17] = geometrical average of the MIC over the 5 Gram + strains, read-out: Geometrical Average
SMILES,MIC (Gram +; read-out: Log (converted)) [µg/mL],MIC [1] [µg/mL],MIC [2] [µg/mL],MIC [3] [µg/mL],MIC (Escherichia coli 120) [µg/mL],MIC [4] [µg/mL],MIC (Escherichia coli CNUR 1) [µg/mL],MIC (Escherichia coli CNUR 8) [µg/mL],MIC (Escherichia coli ISF 432) [µg/mL],MIC [5] [µg/mL],MIC (Proteus vulgaris CNUR 6) [µg/mL],MIC [6] [µg/mL],MIC [7] [µg/mL],MIC [8] [µg/mL],MIC [9] [µg/mL],MIC [10] [µg/mL],MIC [11] [µg/mL],MIC [12] [µg/mL],MIC [13] [µg/mL],MIC [14] [µg/mL],also measured
CN1CCN(c2cc3c(cc2N)c(=O)c(C(=O)O)cn3C2CC2)CC1 [Compound 8],4,4,0.25,0.25,0.12,0.25,0.25,0.12,0.03,0.03,64,8,4,16,64,2,2,2,4,32,MIC (Shighella enteritidis): 0.25 µg/mL; MIC (Gram -; [15]): 0.861 µg/mL; MIC (Gram -; [16]): 0.861 µg/mL
Nc1cc2c(=O)c(C(=O)O)cn(C3CC3)c2cc1N1CCNCC1 [Compound 9],42.2,16,0.5,0.25,0.25,0.25,0.25,0.25,0.03,0.25,32,32,2,8,64,64,64,16,16,128,MIC (Gram +; [17]): 42.2 µg/mL; MIC (Shighella enteritidis): 0.5 µg/mL; MIC (Gram -; [15]): 1.26 µg/mL; MIC (Gram -; [16]): 1.26 µg/mL
Nc1cc2c(=O)c(C(=O)O)cn(C3CC3)c2cc1N1CCCC1 [Compound 10],128,128,16,8,4,0.25,16,8,0.25,0.25,128,128,128,128,128,128,128,128,128,128,MIC (Shighella enteritidis): 16 µg/mL; MIC (Gram -; [15]): 13.3 µg/mL; MIC (Gram -; [16]): 13.3 µg/mL
CC1CN(c2cc3c(cc2N)c(=O)c(C(=O)O)cn3C2CC2)CC(C)N1 (stereo not drawn) [Compound 11],6.97,8,0.5,0.5,0.12,0.03,0.25,0.25,0.03,0.03,64,2,2,8,64,8,8,2,4,32,MIC (Gram +; [17]): 6.96 µg/mL; MIC (Shighella enteritidis): 0.25 µg/mL; MIC (Gram -; [15]): 0.75 µg/mL; MIC (Gram -; [16]): 0.75 µg/mL
CC1CN(c2cc3c(cc2N)c(=O)c(C(=O)O)cn3C2CC2)CCN1 (stereo not drawn) [Compound 14],10.5,16,0.5,0.25,0.06,0.03,0.12,0.12,0.03,0.03,32,16,2,4,64,16,16,4,4,32,MIC (Gram +; [17]): 10.6 µg/mL; MIC (Shighella enteritidis): 0.25 µg/mL; MIC (Gram -; [15]): 0.68 µg/mL; MIC (Gram -; [16]): 0.679 µg/mL
Nc1cc2c(=O)c(C(=O)O)cn(C3CC3)c2cc1N1CCC(O)CC1 [Compound 16],4,2,2,2,0.5,0.03,2,1,0.03,0.03,128,8,8,128,128,4,4,2,4,8,MIC (Gram +; [17]): 4 µg/mL; MIC (Gram -; [15]): 2.08 µg/mL; MIC (Gram -; [16]): 2.07 µg/mL
"Cc1c(N2CCc3ccccc3C2)c(N)cc2c(=O)c(C(=O)O)cn(C3CC3)c12 [Compound 36, 6-amino-1-cyclopropyl-8-methyl-7-[2-(1,2,3,4-tetrahydroisoquinolinyl)]-carboxylic acid]",1.15,8,8,8,2,0.12,4,2,0.25,0.12,64,2,32,8,128,0.5,0.5,1,2,4,MIC (Gram +; [17]): 1.15 µg/mL; MIC (Gram -; [15]): 3.98 µg/mL; MIC (Gram -; [16]): 3.98 µg/mL
Nc1cc2c(=O)c(C(=O)O)cn(-c3ccc(F)cc3)c2cc1N1CCSCC1 [Compound 51],2.3,4,4,4,0.5,0.06,4,0.5,0.03,0.03,128,4,128,128,128,0.5,0.5,2,2,64,MIC (Gram +; [17]): 2.3 µg/mL; MIC (Gram -; [15]): 3.01 µg/mL; MIC (Gram -; [16]): 3.01 µg/mL
"Nc1cc2c(=O)c(C(=O)O)cn(-c3ccc(F)cc3)c2cc1N1CCc2ccccc2C1 [Compound 52, 6-amino-1-(4-fluorophenyl)-7-[2-(1,2,3,4-tetrahydroisoquinolinyl)]-1,4-dihydro-4-oxo-quinoline carboxylic acid]",3.03,4,8,4,1,0.12,4,1,0.12,0.12,128,8,128,128,128,0.5,1,2,4,64,MIC (Gram +; [17]): 3.03 µg/mL; MIC (Gram -; [15]): 4.56 µg/mL; MIC (Gram -; [16]): 4.56 µg/mL
